# Test results published in patent US11573231B2, “Biomarker of aging” (Max-Planck-Gesellschaft zur Forderung der Wissenschaften …, priority 2017, dated 2023).
# Test system: irg-1
# Test: Pirg-1GFP translation suppression reporter in worms
# Type: in vivo, C. elegans
# Details: 3-hour treatment, 2 mg/ml
# Text: DIC microscopy was used to perform all the nucleolar imaging. Hypodermal cells of age-matched day 1 adults were imaged using 100× magnification with Olympus IX81. Freehand tool software from Fiji was used for nucleolar area quantification. FIB-1::GFP, HLH-30::GFP and N2+Pirg-1GFP worms were imaged using Olympus IX81 and Axio Imager Z1(Zeiss).
smiles,measurement,setting,value
C[C@@H]1C[C@@H]([C@H](O)CC2CC(=O)NC(=O)C2)C(=O)[C@@H](C)C1 [cycloheximide],Pirg-1GFP reporter induction,,induced
same,Pirg-1GFP reporter induction,listed as Cyclohexamide,strongly induced
